According to ChEMBL document CHEMBL2385072, “Development of oleanane-type triterpenes as a new class of HCV entry inhibitors” (J Med Chem, 2013):

Columns and labels:
Conditions in all cases: HEK-293T
[1] = test system: Vesicular stomatitis virus; assay: Antiviral activity against pseudo VSV infected in human 293T cells assessed as inhibition of vesicular stromatis G protein pseudo particles entry at 5 uM after 72 hrs by luciferase reporter gene assay; format: functional
Hepatitis C virus [2] = assay: Antiviral activity against pseudo HCV infected in human 293T cells assessed as inhibition of HCV pseudo particles entry at 5 uM after 72 hrs by luciferase reporter gene assay; format: functional, Hepacivirus hominis
Hepatitis C virus [3] = assay: Antiviral activity against pseudo HCV infected in human 293T cells assessed as inhibition of HCV pseudo particles entry at 1 uM after 72 hrs by luciferase reporter gene assay; format: functional, Hepacivirus hominis
[4] = test system: Vesicular stomatitis virus; assay: Antiviral activity against pseudo VSV infected in human 293T cells assessed as inhibition of vesicular stromatis G protein pseudo particles entry at 1 uM after 72 hrs by luciferase reporter gene assay; format: functional

`COC(=O)[C@]12CCC(C)(C)C[C@H]1C1=CC[C@@H]3[C@@]4(C)CC[C@H](O)C(C)(C)[C@@H]4CC[C@@]3(C)[C@]1(C)C[C@H]2OCc1ccccc1` showed an inhibition at 5 µM [1] of -3.9%, an inhibition at 5 µM (Hepatitis C virus [2]) of 5.8% and an inhibition at 1 µM (Hepatitis C virus [3]) of 4.6%. It also gave an inhibition at 1 µM [4] of 1.6%.
Molecule `CC(=O)OC[C@H]1O[C@@H](n2cc(CNC(=O)[C@]34CCC(C)(C)C[C@H]3C3=CC[C@@H]5[C@@]6(C)CC[C@H](O)C(C)(C)[C@@H]6CC[C@@]5(C)[C@]3(C)C[C@H]4O)nn2)[C@H](OC(C)=O)[C@@H](OC(C)=O)[C@@H]1OC(C)=O` has an inhibition at 5 µM [1] of 12.5%, an inhibition at 5 µM (Hepatitis C virus [2]) of 89.7% and an inhibition at 1 µM (Hepatitis C virus [3]) of 20.3%. It also gave an inhibition at 1 µM [4] of -9.1%.
Molecule `CC1(C)CC[C@]2(C(=O)O[C@@H]3O[C@H](CO)[C@@H](O[C@H]4O[C@H](CO)[C@@H](O)[C@H](O)[C@H]4O)[C@H](O)[C@H]3O)[C@H](O)C[C@]3(C)C(=CC[C@@H]4[C@@]5(C)CC[C@H](O)C(C)(C)[C@@H]5CC[C@]43C)[C@@H]2C1` has an inhibition at 5 µM [1] of 21.9%, an inhibition at 5 µM (Hepatitis C virus [2]) of 43.7% and an inhibition at 1 µM (Hepatitis C virus [3]) of 36.4%. It also gave an inhibition at 1 µM [4] of 21.6%.
With `COC(=O)[C@]12CCC(C)(C)C[C@H]1C1=CC[C@@H]3[C@@]4(C)CCC(=O)C(C)(C)[C@@H]4CC[C@@]3(C)[C@]1(C)CC2=O` the inhibition at 5 µM [1] was -2.8%, the inhibition at 5 µM (Hepatitis C virus [2]) was 70.1% and the inhibition at 1 µM (Hepatitis C virus [3]) was 48.2%. For the same molecule, the inhibition at 1 µM [4] was -10%.
`COC(=O)[C@]12CCC(C)(C)C[C@H]1C1=CC[C@@H]3[C@@]4(C)CC[C@H](OC(C)=O)C(C)(C)[C@@H]4CC[C@@]3(C)[C@]1(C)C[C@H]2OC(C)=O` was tested, and the inhibition at 5 µM [1] was 24.2%, the inhibition at 5 µM (Hepatitis C virus [2]) was 20.1% and the inhibition at 1 µM (Hepatitis C virus [3]) was 13.5%. The inhibition at 1 µM [4] was 15.8%.
For `CC1(C)CC[C@]2(C(=O)NCc3cn([C@@H]4O[C@H](CO)[C@@H](O[C@H]5O[C@H](CO)[C@@H](O[C@H]6O[C@H](CO)[C@@H](O)[C@H](O)[C@H]6O)[C@H](O)[C@H]5O)[C@H](O)[C@H]4O)nn3)[C@H](O)C[C@]3(C)C(=CC[C@@H]4[C@@]5(C)CC[C@H](O)C(C)(C)[C@@H]5CC[C@]43C)[C@@H]2C1`, the inhibition at 5 µM [1] was 27.4%, the inhibition at 5 µM (Hepatitis C virus [2]) was 39% and the inhibition at 1 µM (Hepatitis C virus [3]) was 12.8%. For the same molecule, the inhibition at 1 µM [4] was 19.7%.
For `CC1(C)CC[C@]2(C(=O)NCc3cn([C@@H]4OC[C@@H](O)[C@@H](O)[C@@H]4O)nn3)[C@H](O)C[C@]3(C)C(=CC[C@@H]4[C@@]5(C)CC[C@H](O)C(C)(C)[C@@H]5CC[C@]43C)[C@@H]2C1`, the inhibition at 5 µM [1] was 25.1%, the inhibition at 5 µM (Hepatitis C virus [2]) was 32.2% and the inhibition at 1 µM (Hepatitis C virus [3]) was 18.7%. The inhibition at 1 µM [4] was 8.4%.
Work on `CC1(C)CC[C@]2(C(=O)NCc3cn([C@@H]4O[C@H](CO)[C@@H](O[C@@H]5O[C@H](CO)[C@H](O)[C@H](O)[C@H]5O)[C@H](O)[C@H]4O)nn3)[C@H](O)C[C@]3(C)C(=CC[C@@H]4[C@@]5(C)CC[C@H](O)C(C)(C)[C@@H]5CC[C@]43C)[C@@H]2C1` yielded an inhibition at 5 µM [1] of 47.3%, an inhibition at 5 µM (Hepatitis C virus [2]) of 14.6% and an inhibition at 1 µM (Hepatitis C virus [3]) of 23.1%. The inhibition at 1 µM [4] was 47%.
Work on `COC(=O)[C@]12CCC(C)(C)C[C@H]1[C@H]1C(O)C[C@@H]3[C@@]4(C)CC[C@H](O)C(C)(C)[C@@H]4CC[C@@]3(C)[C@]1(C)C[C@H]2O` (some centres undefined) yielded an inhibition at 5 µM [1] of 43.5%, an inhibition at 5 µM (Hepatitis C virus [2]) of 51% and an inhibition at 1 µM (Hepatitis C virus [3]) of 22.6%. For the same molecule, the inhibition at 1 µM [4] was 35.8%.
Molecule `CC1(C)CC[C@]2(C(=O)NCc3cn([C@@H]4O[C@H](CO)[C@H](O)[C@H](O)[C@H]4O)nn3)[C@H](O)C[C@]3(C)C(=CC[C@@H]4[C@@]5(C)CC[C@H](O)C(C)(C)[C@@H]5CC[C@]43C)[C@@H]2C1` has an inhibition at 5 µM [1] of 25.3%, an inhibition at 5 µM (Hepatitis C virus [2]) of 36.3% and an inhibition at 1 µM (Hepatitis C virus [3]) of 16.6%. It also gave an inhibition at 1 µM [4] of 11.5%.
For `CC1(C)CC[C@]2(C(=O)O)[C@H](O)C[C@]3(C)C(=CC[C@@H]4[C@@]5(C)CC[C@H](OS(=O)(=O)O)C(C)(C)[C@@H]5CC[C@]43C)[C@@H]2C1`, the inhibition at 5 µM [1] was 40.4%, the inhibition at 5 µM (Hepatitis C virus [2]) was 55.2% and the inhibition at 1 µM (Hepatitis C virus [3]) was 33.4%. It also gave an inhibition at 1 µM [4] of 39.1%.
